Here are results for five molecules from patent publication EP4768484A1, “HETEROCYCLIC FUSED RING COMPOUND, AND COMPOSITION AND USE THEREOF” (Shenzhen TargetRx, Inc., priority 2023, dated 2025).

Each structure is given as a SMILES string. A value given as a limit tells only on which side of the number the result lay.

What all share (assay type): cell-based
Assay [1] deals with T1, Ba/F3 BCR-ABL1 E255V/T315I (Homo sapiens, UniProt P00519+P11274, E255V/T315I).
T1 construct: BCR (N-terminal fusion partner of the oncoprotein); expressed in transfected cells; host or cells: Ba/F3 (lentiviral transduction, monoclonal line)
Put plainly: Cell growth inhibitory activity assay (CellTiter-Glo), Ba/F3 BCR-ABL1 E255V/T315I cells. The following applies: 72 h, CTG cell viability. How it is done: (§1) In this assay, the Celltiter-Glo (CTG) kit provided by Promega was used, and it is a homogeneous cell viability assay method. The cell viability of cultured cells was measured by quantifying ATP. K562 cells were purchased from Nanjing Kebai, product number CBP60529; Ba/F3 parental cells were purchased from RIKEN BRC, product number RCB0805; other cells containing BCR-ABL1 WT, BCR-ABL1 T315I, BCR-ABL1 T315M, BCR-ABL1 Y253H/E255K, BCR-ABL1 E255V/T3151, BCR-ABL1 A424T, BCR-ABL1 A337V, BCR-ABL1 P465S, BCR-ABL1 V468F, and BCR-ABL1 I502L were all monoclonal engineered cell lines obtained by transducting Ba/F3 parental cells with the lentivirus plasmids containing WT or corresponding mutated BCR-ABL1.
(§2) The steps of cell viability assay are as follows: • a) Cells in logarithmic growth phase were collected. Cell suspension was prepared and the cells were counted. Concentration of the cells was calculated. • b) The cell suspension was diluted to the required concentration and then added to the middle wells of a 96-well plate, and PBS was added to the edge wells. The wells with no cells and only culture medium were used as blank controls. • c) In addition to the cell plate used for compound analysis, another 96-well plate was prepared as a T0 plate, and 3-6 blank wells and 3-6 cell wells were added. The next day, CTG was used to test the cell viability as the T0 viability value of the cells. • d) The cell plate was incubated at 37 °C in a 5% CO2 incubator overnight. • e) The next day, each concentration of a compound subjected to a gradient dilution was added, and the cell plate was incubated at 37 °C in a 5% CO2 incubator for 72 h. The wells with no compound and only 0.5% DMSO were used as positive controls for cell growth. • f) CTG reagent (CellTiter-Glo kit) was added according to the manufacturer's instructions to test the cell viability value. • g) The plate was read using Biotek cytation3.0 microplate reader and the data were exported. • h) IC50 was calculated using GraphPad Prism 7.0 software.
(§3) The IC50 (half-maximal inhibitory concentration) of the compound was obtained using the following nonlinear fitting formula: Y = Bottom + (Top−Bottom)/(1+10^(∧)((LogIC50−X)*HillSlope)) [formula] • X: Log value of the compound concentration • Y: Inhibition rate (% inhibition) • Top: Maximum response • Bottom: Baseline response • HillSlope: Slope of the curve
(§4) The formula for calculating cell inhibition rate (inhibition rate %) was: [formula]
In general terms: ATP-based viability assays read luminescence as a measure of living cells.

Assay [2] has as its target T2, Ba/F3 BCR-ABL1 WT (Homo sapiens, UniProt P00519+P11274).
T2 construct: BCR (N-terminal fusion partner of the oncoprotein); expressed in transfected cells; host or cells: Ba/F3 (lentiviral transduction, monoclonal line)
Put plainly: Cell growth inhibitory activity assay (CellTiter-Glo), Ba/F3 BCR-ABL1 WT cells. The following applies: 72 h, CTG cell viability. The method, boiled down:
(§5)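 Ba/F3 parental cells or Ba/F3 lines lentivirally transduced with WT or mutant BCR-ABL1, seeded overnight then exposed to serially diluted compound 72 h at 37 °C, 5% CO2. Viability by CellTiter-Glo ATP luminescence with a T0 plate; 0.5% DMSO controls; IC50 from four-parameter nonlinear fit.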

In assay [3] the target is T3, Ba/F3 BCR-ABL1 A424T (Homo sapiens, UniProt P00519+P11274, A424T).
T3 construct: BCR (N-terminal fusion partner of the oncoprotein); expressed in transfected cells; host or cells: Ba/F3 (lentiviral transduction, monoclonal line)
The assay can be described thus: Cell growth inhibitory activity assay (CellTiter-Glo), Ba/F3 BCR-ABL1 A424T cells. The following applies: 72 h, CTG cell viability. How it is done: as §1, §2, §3, §4

For assay [4], the target named is T4, Ba/F3 BCR-ABL1 V468F (Homo sapiens, UniProt P00519+P11274, V468F).
T4 construct: BCR (N-terminal fusion partner of the oncoprotein); expressed in transfected cells; host or cells: Ba/F3 (lentiviral transduction, monoclonal line)
Put plainly: Cell growth inhibitory activity assay (CellTiter-Glo), Ba/F3 BCR-ABL1 V468F cells. The following applies: 72 h, CTG cell viability. The protocol:
as §1, §2, §3, §4

For assay [5], the target named is T5, Ba/F3 BCR-ABL1 Y253H/E255K (Homo sapiens, UniProt P00519+P11274, E255K/Y253H).
T5 construct: BCR (N-terminal fusion partner of the oncoprotein); expressed in transfected cells; host or cells: Ba/F3 (lentiviral transduction, monoclonal line)
The assay can be described thus: Cell growth inhibitory activity assay (CellTiter-Glo), Ba/F3 BCR-ABL1 Y253H/E255K cells. The following applies: 72 h, CTG cell viability. The protocol:
as §1, §2, §3, §4

The target of assay [6] is T6, Ba/F3 BCR-ABL1 T315M (Homo sapiens, UniProt P00519+P11274, T315M).
T6 construct: BCR (N-terminal fusion partner of the oncoprotein); expressed in transfected cells; host or cells: Ba/F3 (lentiviral transduction, monoclonal line)
The assay can be described thus: Cell growth inhibitory activity assay (CellTiter-Glo), Ba/F3 BCR-ABL1 T315M cells. The following applies: 72 h, CTG cell viability. The protocol: as §1, §2, §3, §4

Assay [7] deals with Ba/F3 parental cells. The assay can be described thus: Cell growth inhibitory activity assay (CellTiter-Glo), Ba/F3 parental cells. The following applies: Mus musculus, BaF3, 72 h, CTG cell viability, read-out: IC50 Ba/F3 BCR-ABL1 Parental. The method, boiled down:
as §5

In assay [8] the target is T7, Ba/F3 BCR-ABL1 T315I (Homo sapiens, UniProt P00519+P11274, T315I).
T7 construct: BCR (N-terminal fusion partner of the oncoprotein); expressed in transfected cells; host or cells: Ba/F3 (lentiviral transduction, monoclonal line)
The assay can be described thus: Cell growth inhibitory activity assay (CellTiter-Glo), Ba/F3 BCR-ABL1 T315I cells. The following applies: 72 h, CTG cell viability. The method, boiled down:
as §5

Assay [9] concerns K562 cells. The assay can be described thus: Cell growth inhibitory activity assay (CellTiter-Glo), K562 cells. The following applies: Homo sapiens, 72 h, CTG cell viability. The essentials:
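Growth inhibition of human K562 cells, sourced from Nanjing Kebai (CBP60529), was assessed with Promega's CellTiter-Glo kit, which measures viability through ATP quantification. Log-phase cells went into the inner wells of 96-well plates, with PBS in edge wells, incubated overnight at 37 °C and 5% CO2, then exposed to serially diluted compound for 72 h.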

Turning to `CC(=O)NC1CCC2c3cc(C(=O)Nc4ccc(OC(F)(F)Cl)cc4)cc(-c4cnc5c(c4)C(=O)N(C)C5)c3N(C(C)C)C12` (racemic) [T-11, 3-acetamido-N-(4-(chlorodifluoromethoxy)phenyl)-4-isopropyl-5-(6-methyl-5-oxo-6,7-dihydro-5H-pyrrolo[3,4-b]pyridin-3-yl)-1,2,3,3a,4,8b-hexahydrocyclopenta[b]indole-7-carboxamide], the IC50 in [1] was 50 to 1000 nM; in assay [2], not above 5 nM; in assay [3], 50 to 1000 nM; in assay [4], more than 1000 nM; in [5], 50 to 1000 nM; in assay [6], more than 1000 nM. The IC50 in [7] was more than 1000 nM; in [8], 50 to 1000 nM; in [9] it was not above 5 nM.
With `C[C@@H]1COCc2nc3cc(C(=O)Nc4ccc(OC(F)(F)Cl)cc4)cc(-c4cnc5c(c4)C(=O)N(C4CC4)C5)c3n21` [T-25, (R)-N-(4-(chlorodifluoromethoxy)phenyl)-6-(6-cyclopropyl-5-oxo-6,7-dihydro-5H-pyrrolo[3,4-b]pyridin-3-yl)-4-methyl-3,4-dihydro-1H-benzo[4,5]imidazo[2,1-c][1,4]oxazine-8-carboxamide], the IC50 in assay [1] is 5 to 50 nM; in assay [2] it was not above 5 nM; in assay [3], 5 to 50 nM; in [5], 5 to 50 nM; in assay [6] it was more than 1000 nM; in [7] it was more than 1000 nM. The IC50 in [8] was 5 to 50 nM; in [9], not above 5 nM.
Take `C[C@@H]1COCc2nc3cc(C(=O)Nc4ccc(OC(F)(F)Cl)cc4)cc(-c4cnc5c(c4)-c4nn(-c6ccncn6)cc4C5)c3n21` [T-67, (R)-N-(4-(chlorodifluoromethoxy)phenyl)-4-methyl-6-(2-(pyrimidin-4-yl)-2,4-dihydropyrazolo[3',4':3,4]cyclopenta[1,2-b]pyridin-7-yl)-3,4-dihydro-1H-benzo[4,5]imidazo[2,1-c][1,4]oxazine-8-carboxamide]: the IC50 in [2] was not above 5 nM; in assay [5], not above 5 nM; in assay [7] it was more than 1000 nM; in assay [8] it was not above 5 nM; in assay [9], not above 5 nM.
On to `C[C@@H]1COCc2nc3cc(C(=O)Nc4ccc(OC(F)(F)Cl)cc4)cc(-c4cnc5c(c4)-c4nn(-c6ncc(C#N)cn6)cc4C5)c3n21` [T-78, (R)-N-(4-(chlorodifluoromethoxy)phenyl)-6-(2-(5-cyanopyrimidin-2-yl)-2,4-dihydropyrazolo[3',4':3,4]cyclopenta[1,2-b]pyridin-7-yl)-4-methyl-3,4-dihydro-1H-benzo[4,5]imidazo[2,1-c][1,4]oxazine-8-carboxamide], for which the IC50 in assay [1] is not above 5 nM; in assay [2], not above 5 nM; in assay [5], not above 5 nM; in [7], more than 1000 nM; in assay [8], not above 5 nM; in assay [9], not above 5 nM.
Take `C[C@@H]1COCc2nc3cc(C(=O)Nc4ccc(OC(F)(F)Cl)cc4)cc(-c4cnc5c(c4)-c4nc(N)sc4C5)c3n21` [T-114, (R)-6-(2-amino-4H-thiazolo[4',5':3,4]cyclopenta[1,2-b]pyridin-7-yl)-N-(4-(chlorodifluoromethoxy)phenyl)-4-methyl-3,4-dihydro-1H-benzo[4,5]imidazo[2,1-c][1,4]oxazine-8-carboxamide]: the IC50 in [1] is 50 to 1000 nM; in assay [2], not above 5 nM; in [5], 5 to 50 nM; in assay [6] it was more than 1000 nM; in assay [7], more than 1000 nM; in assay [8], 5 to 50 nM. Also, in [9], the IC50 is not above 5 nM.
